# Numbers after ± are expanded uncertainties.
# Experiment: molar heat capacity at constant pressure
# Settings: 298.15 K; 101.33 kPa; Liquid; High-precision drop calorimeter
row,Structure (SMILES),molar heat capacity at constant pressure
1,CCCCCC[n+]1ccn(C)c1.O=S(=O)([N-]S(=O)(=O)C(F)(F)F)C(F)(F)F,629.4 ± 6 J/K/mol
2,CCCCCCCCn1cc[n+](C)c1.O=S(=O)([N-]S(=O)(=O)C(F)(F)F)C(F)(F)F,690.2 ± 7 J/K/mol
3,CCCC[n+]1ccn(C)c1.O=S(=O)([N-]S(=O)(=O)C(F)(F)F)C(F)(F)F,565.9 ± 5 J/K/mol
4,CCCCCn1cc[n+](C)c1.O=S(=O)([N-]S(=O)(=O)C(F)(F)F)C(F)(F)F,595.6 ± 6 J/K/mol
5,CCCn1cc[n+](C)c1.O=S(=O)([N-]S(=O)(=O)C(F)(F)F)C(F)(F)F,534.9 ± 5 J/K/mol
6,CCn1cc[n+](C)c1.O=S(=O)([N-]S(=O)(=O)C(F)(F)F)C(F)(F)F,504.8 ± 5 J/K/mol
7,CCCCCCCCCCn1cc[n+](C)c1.O=S(=O)([N-]S(=O)(=O)C(F)(F)F)C(F)(F)F,754.5 ± 7 J/K/mol
8,CCCCCCCCCCCCn1cc[n+](C)c1.O=S(=O)([N-]S(=O)(=O)C(F)(F)F)C(F)(F)F,820.2 ± 8 J/K/mol
9,CCCCCCCn1cc[n+](C)c1.O=S(=O)([N-]S(=O)(=O)C(F)(F)F)C(F)(F)F,659.2 ± 6 J/K/mol

# — the NIST ThermoML archive (doi:10.1016/j.jct.2012.04.025)
